Molecules are shown by their SMILES.

The nature of data set [1]: Permeability test with Caco-2 cells. It counts as in vitro ADME. The following applies: human, Caco-2 monolayer, apical to basolateral, 30 and 60 minutes, read-out: apparent permeation coefficient (Papp). As for the experimental part:
Permeability Test with Caco-2 Cells
0.5×10^6/cm^2 of Caco-2 cells (ATCC Catalog No. HTB-37, Manassas, Va., USA) were seeded into Transwell (polycarbonate filter: pore diameter 0.4 μm; culture area 0.33 cm^2; available from Costar Co.), and incubated in Dulbecco's modified Eagle's minimum essential medium (DMEM; available from Fisher Scientific International Inc.) for 21 to 30 days under the conditions of 37° C., 5% CO2 and 95% relative humidity, whereby a monolayer cell was prepared. The confluence of such a monolayer cell was evaluated by measuring trans epithelial electronic resistance (TEER). […] Based on the quantification results, apparent permeation coefficient (Papp) was calculated according to the formula: Papp=(δQ/δt)×(1/60AC0). • Papp: apparent permeation coefficient (cm/sec) • δQ/δt: permeation velocity (pmol/min) • A: area of monolayer cell=0.33 cm^2 • C0: initial concentration at apical membrane side (pmol/mL)

By melting point is commonly meant the temperature, or range, at which the solid turns liquid. For the molecule `CCCCNC(=O)C(=O)[C@H](CC(C)C)NC(=O)[C@@H](NS(=O)(=O)c1ccc(F)cc1)C(C)C` [Compound 1, (3S)-N-Butyl-3-((2S)-2-(((4-fluorophenyl)sulfonyl)amino)-3-methylbutanoylamino)-5-methyl-2-oxohexanamide], the melting point is 107.6 to 109.9 °C. In data set [1], the Papp A→B at 60 min, 10 μM came to 17 ×10⁻⁶ cm/s.

Source of the values: patent US7022738B2, “α-ketoamide derivative and use thereof” (Senju Pharmaceutical Co., Ltd., priority 2002, dated 2006).
